Experimental findings from publication PMC9317481, “Design and Synthesis of New Hydantoin Acetanilide Derivatives as Anti-NSCLC Targeting EGFR^L858R/T790M Mutations” (Pharmaceuticals, 2022) are described below.

One series has as its target EGFR^L858R (Homo sapiens, UniProt P00533, L858R). As to the kind of experiment: EGFR kinase assay (L858R).
Series [1] concerns A549 cells. As to the kind of experiment: Annexin V-FITC/propidium iodide apoptosis assay in A549 cells. The following applies: IC50 concentration. It is filed as cell-based, human. The procedure:
(§1) The active hydantoin derivative 5a was further investigated for its effect on cell cycle progression and the induction of apoptosis in A549 cells. Exposure of A549 cells to 5a at its IC50 value led to an interference with the normal cell cycle distribution of the cell (Figure 5). […] Meanwhile, 5a was evaluated for its ability to induce apoptosis in A549 cells by staining with propidium iodide and Annexin V-FITC.
(§2) Cell cycle analysis and Annexin V-FITC apoptosis assay were performed as described earlier.
Figure 6 Apoptotic effect of compound 5a on A549 cells. Representative cytograms of apoptotic A549 cells stimulated with 5a or DMSO as a negative control for 24 h. TEXT PRINTED IN THE PICTURE: Control: Necrosis 0.94%; Late apoptosis 0.26%; Early apoptosis 0.41% | 5a: Necrosis 11.59%; Late apoptosis 19.89%; Early apoptosis 3.77%

Series [2] has as its system A549 cells. As to the kind of experiment: Cell cycle analysis by flow cytometry in A549 cells. It is filed as cell-based, human. Conditions: 5a at its IC50 value. The procedure:
as §1, §2
Figure 5 Compound 5a arrested the cell cycle at the sub G1 and S phases in A549 cells. Representative cell cycle distribution data are shown by flow cytometric analysis upon incubation with 5a or DMSO as a negative control for 24 h.

The next series deals with WI-38 normal cells. As to the kind of experiment: MTT cytotoxicity on normal fibroblast WI-38 cells.
Series [3] concerns A549, H1975, and PC9 cell lines. As to the kind of experiment: MTT antiproliferative assay, average of the three NSCLC cell lines. The following applies: Homo sapiens, read-out: IC50 (µM) Average. On the technique in general: Formazan colour is commonly taken as a measure of viable cells.
Series [4] relates to A549 cells. As to the kind of experiment: Wound healing assay in A549 cells. The following applies: 0.5, 1 or 2 µM, 72 h. Type of series: cell-based, human. The procedure:
Various articles have highlighted the role of EGFR in the migration of tumor cells. Accordingly, the migratory effects of 5a in A549 cells were assessed using a wound healing assay.
Wound healing assay of 5a was performed using CytoSelect™ 24-well Wound Healing Assay kit (Cat. # CBA-120, Cell Biolabs Inc., Cambridge, UK) per manufacturer’s instructions. In brief, the 24-well plate wound healing inserts were allowed to warm up at room temperature for 10 min., then to each well, 500 µL of A549 cells suspension ([…]) in media containing 10% fetal bovine serum (FBS) was added. Cells were kept in a cell culture incubator until a monolayer formed. Carefully, the insert was removed from the well. The media were slowly aspirated and discarded from the wells. The wells were washed with media to remove dead cells and debris. Finally, the media were added to wells to keep cells hydrated, then wells were visualized under a light microscope. Media containing the indicated concentrations of compound 5a (0.5, 1, or 2 µM) were then added into the wells for 72 h. the wound closure was monitored with a light microscope. The percent closure of the cells into the wound field was measured.

In the next series the target is T1, EGFR phosphorylation (Homo sapiens, UniProt P00533).
T1 construct: A549 (harbor EGFR^WT); endogenous in cells; host or cells: A549
As to the kind of experiment: Western blot of EGFR phosphorylation expression in A549 cells. Type of series: cell-based. The procedure:
In addition, the obtained data were attuned to β-actin expression to exclude the deviations further.
The western blot experiment was performed according to the same procedure described earlier.
(In general: In western blotting, separated proteins are transferred to a membrane and probed.)

The subject of the next series is H1975 cells. As to the kind of experiment: MTT antiproliferative assay, H1975. The following applies: Homo sapiens, NCI-H1975, read-out: IC50 (µM) H1975.
In the next series the target is EGFR^T790M (Homo sapiens, UniProt P00533, T790M). As to the kind of experiment: EGFR kinase assay (T790M).
For the next series, the system named is Akt. As to the kind of experiment: Akt enzyme assay (Phospho-Ser473 ELISA) in A549 cells. It is filed as cell-based, human. Conditions: read-out: Enzymatic Inhibition, IC50, (nM) Akt.
For series [5], the system named is A549 cells. As to the kind of experiment: MTT antiproliferative assay, A549. The following applies: Homo sapiens, A549, read-out: IC50 (µM) A549.
Another series concerns the target EGFR^WT (Homo sapiens, UniProt P00533). As to the kind of experiment: EGFR kinase assay (wild type).
The test system of a further series is PC9 cells. As to the kind of experiment: MTT antiproliferative assay, PC9. Conditions: Homo sapiens, PC-9, read-out: IC50 (µM) PC9.
The test system of a further series is ERK. As to the kind of experiment: ERK enzyme assay (ELISA) in A549 cells. It is filed as cell-based, human. The following applies: read-out: Enzymatic Inhibition, IC50, (nM) ERK. (An ELISA detects its analyte on a solid surface through an enzyme-linked reagent.)
[6] abbreviates: A549 cells treated by 5a, Western blot.

Protocol for Akt: Akt expression level was assayed using the Phospho Sandwich Akt (Phospho-Ser473) ELISA Kit (Cat. # MBS9511022, MyBioSource, San Diego, CA, USA) containing the components necessary for the semi-quantitative determination of Akt concentrations within experimental cell lysate samples. The assay was performed according to company protocols: the lysates were diluted with assay diluent and 100 μL/well was dispensed, wrapped with parafilm, and incubated for 2 h. They were shaken with RT or overnight at 4 °C. The plate was washed 3 times with 1× Wash Buffer 300 μL/well with a vacuum-based plate washer. Then, the plate was stricken on absorbent paper to remove as much residual liquid as possible. The Detection Antibody was diluted to 1× and 100 μL/well was dispensed, wrapped with parafilm, and incubated on a shaker for 2 hrs at RT, and the washing step was repeated. Streptavidin-HRP was diluted to 1× and 100 μL/well was dispensed, wrapped with parafilm, and incubated on a shaker for 30 min at RT. Ready-to-use substrate was brought to RT and 100 μL/well was dispensed and the reaction was allowed to incubate on an orbital shaker for 20–30 min. The reaction was stopped with stop solution 100 μL/well. The wells turned from blue to yellow and were read at 450 nm.
Protocol for ERK: ERK ELISA Kit (Cat. # E4317-100, BioVision, Inc., Waltham, MA, USA) was used for the in vitro quantitative determination of Human ERK. Firstly, the plate was washed 2 times with Wash Solution before the standard, sample, and control wells were added. A total of 100 μL of each standard or sample was added into appropriate wells. […] The cover was removed and the plate content was discarded without washing or letting the wells completely dry. A total of 0.1 mL of Biotin-detection antibody work solution was added into the above wells. […] The solution was discarded and washed 3 times with Wash Solution. It was washed by filling each well with Wash Buffer (350 μL) using a multi-channel pipette or auto-washer. It was soaked for 1–2 min, and then all residual wash-liquid was removed from the wells by aspiration. After the last wash, any remaining wash buffer was removed by aspirating or decanting. The plate was clapped on absorbent filter papers or other absorbent materials. […] The solution was discarded and washed 5 times with wash solution as mentioned before. […] A total of 50 μL of Stop Solution was added to each well. The result was read at 450 nm within 20 min.
Protocol for WI-38 normal cells: The new prepared candidates 5a–5n were evaluated for their antitumor activities against four selected cell lines, the adenocarcinomic human alveolar basal epithelial cells NCI-A549, NCI-H1975, human pulmonary adenocarcinoma PC9, and the fibroblast-like fetal lung cells WI-38 (purchased from American Type Culture Collection (ATCC), United States of America), using an MTT assay [26], as described earlier [27].

As usually defined, the IC50 is the concentration at which inhibition is half-maximal. Take `COc1ccc(NC(=O)CN2C(=O)NC(C)(c3ccccc3)C2=O)cc1OC` (centres unmarked) [5a, N -(3,4-dimethoxyphenyl)-2-(4-methyl-2,5-dioxo-4-phenylimidazolidin-1-yl)acetamide]: the IC50 amounted to 50 ± 1 nM against EGFR^L858R; 49.3 ± 2.75 µM with WI-38 normal cells (Homo sapiens, WI-38, read-out: WI-38, IC50 (µM)); 4.79 µM in [3]; 1.94 ± 0.25 µM with H1975 cells; 90 ± 2 nM against EGFR^T790M; 33.8 ± 0.55 nM in the series with Akt. The IC50 in the series on A549 cells [5] amounted to 2.26 ± 0.12 µM; at EGFR^WT it was 30 ± 5 nM; in the series on PC9 cells it was 10.2 ± 0.53 µM; in the series on ERK, 25.8 ± 41 nM. The “elevation of early apoptotic cells compared to the negative control” value with A549 cells [1] amounted to 77 folds. In addition, the “elevation of late apoptotic cells compared to the negative control” value in the series with A549 cells [1] is reported as 9 folds. Moreover, the Early apoptosis with A549 cells [1] (24 h) worked out at 3.77%. The Late apoptosis in the series with A549 cells [1] (24 h) was 19.89%. Also, the Necrosis with A549 cells [1] (24 h) is listed as 11.59%. Moreover, the “boost of cells at pre-G1 compared to the control” value with A549 cells [2] is 22 folds. Besides, in the series with A549 cells [2] (24 h), the “cells at S phase” value is reported as 40.40%. Further, in the series on A549 cells [2] (24 h), the “cells at sub G1 phase” value stood at 35.25%. Further, in the series on WI-38 normal cells (ratio of WI-38 IC50 versus erlotinib), the “fold superior to the reference erlotinib on WI-38” value turned out to be 2.6 fold. Further, the “wound closure and migration of A549 cells” value in the series on A549 cells [4] was “reduced the wound closure and the migration of A549 cells substantially in a dose-dependent manner”. Besides, the “OD (EGFR)” value on EGFR phosphorylation (setting [6]) turned out to be 0.79. Besides, the “OD (pEGFR)” value at EGFR phosphorylation (setting [6]) turned out to be 0.33. Further, the “fold decrease in expression level of EGFR phosphorylation compared to control” value on EGFR phosphorylation (A549 cells, 0.03 µM of 5a, normalised to β-actin) turned out to be 2.5 fold.
